Publication PMC11503492, “Activity-Based DNA-Encoded Library Screening for Selective Inhibitors of Eukaryotic Translation” (ACS Central Science, 2024)

Assays:
[1] = test system: PCSK9[1:33]-GFP translation; assay: Wheat germ lysate (WG) IVTT microplate activity assay, PCSK9[1:33]-GFP template; assay type: biochemical; conditions: WG IVTT
Source text: (§1) A commercially available wheat germ lysate (WG) IVTT system was employed to assay translation inhibition. Translation activity was detected via a GFP reporter, and the assay was miniaturized to picoliter-scale microfluidic droplets (Figure 1A,B). […] PCSK9 and RPL27 were truncated to the first 33 and 32 amino acids, respectively (PCSK9[1:33] and RPL27[1:32]). The sequences contain distinct PF846 stall sites and were both fused to a GFP reporter. The GFP reporter and a frameshift mutant of PCSK9[1:33] (PCSK9-FS[1:33]), which mutates the nascent chain sequence while maintaining a nearly identical mRNA sequence, were included as negative controls.[13] […] Sequence sensitivity was further confirmed by an N-terminal deletion series of PCSK9[1:33]-GFP; deletion of N-terminal residues increasingly ablated PCSK9[1:33]-GFP translation sensitivity to PF846 (Figure 1D). The WG IVTT assay was miniaturized using a previously described microfluidic circuit modified for longer incubation times (Figure S1)[27] using PF846 as a positive control compound, and assay statistical quality was calculated (Z′=0.7) (Figure 1E). To confirm detection of translation inhibition from library beads, hygromycin B, a nonselective aminoglycoside translation inhibitor, was coupled to beads displaying a photocleavable linker (PC-HygB). UV irradiation releases hygromycin from the bead, allowing it to interact with the WG IVTT assay in the droplet. PC-HygB bead photocleavage supernatant inhibited PCSK9[1:33]-GFP translation both in a microplate assay and in microfluidic droplets (Figure 1F,G, S2). Assay statistical quality using PC-HygB positive control beads was similarly calculated (Z′ = 0.75, Figure 1H). […]
(§2) 436 Microplate IVTT Assays
(§3) 437 Wheat germ lysate IVTT plate assays were prepared as 5 µL reactions. Wheat germ lysate
(§4) 438 (3 µL) was added to test compound or vehicle control (1 µL) in a 384-well black microplate
(§5) 439 and the reaction was incubated (10 min, RT). Template (1 µL) was added and reaction
(§6) 440 progress was immediately monitored (λex = 480 nm, λem = 530 nm, 27 °C, 2 h). Rela-
(§7) 441 tive activity was calculated using the slope of fluorescence increase over time (at 15–30
(§8) 442 min post reaction initiation) for compound samples relative to that of the DMSO vehicle
443 control. […]

[2] = test system: RPL27[1:32]-GFP translation; assay: WG IVTT activity assay, RPL27[1:32]-GFP template; assay type: biochemical, wheat germ
Source text: A commercially available wheat germ lysate (WG) IVTT system was employed to assay translation inhibition. Translation activity was detected via a GFP reporter, and the assay was miniaturized to picoliter-scale microfluidic droplets (Figure 1A,B). […] PCSK9 and RPL27 were truncated to the first 33 and 32 amino acids, respectively (PCSK9[1:33] and RPL27[1:32]). The sequences contain distinct PF846 stall sites and were both fused to a GFP reporter. The GFP reporter and a frameshift mutant of PCSK9[1:33] (PCSK9-FS[1:33]), which mutates the nascent chain sequence while maintaining a nearly identical mRNA sequence, were included as negative controls.[13] […] The WG IVTT assay was miniaturized using a previously described microfluidic circuit modified for longer incubation times (Figure S1)[27] using PF846 as a positive control compound, and assay statistical quality was calculated (Z′=0.7) (Figure 1E). […] Assay statistical quality using PC-HygB positive control beads was similarly calculated (Z′ = 0.75, Figure 1H). […]
429 of encoding region identifiers was then determined using a UMI aggregation algorithm; […]
433 manually determined threshold (10) were discarded. […]
(§9) 440 progress was immediately monitored (λex = 480 nm, λem = 530 nm, 27 °C, 2 h). […]
(§10) 441 tive activity was calculated using the slope of fluorescence increase over time (at 15–30 […]
Figure S11. […] Compound 8 (black) and PF846 (gray) were analyzed […]

[3] = test system: MST1[1:39]-GFP translation; parameters: method as in PMID 28323820; conditions: cited from earlier work
[4] = test system: PCSK9-FS[1:33]-GFP translation; assay: WG IVTT microplate activity assay, PCSK9-FS[1:33]-GFP frameshift counter template; assay type: biochemical, wheat germ
Source text: as §1, §2, §3, §4, §5, §6, §7, §8
443 control. All microplate experiments contained 25 ng/µL plasmid, except for assays with
445 respectively. HeLa lysate IVTT plate assays were prepared as 5.5 µL reactions. […]

[5] = test system: PCSK9[1:33]-GFP N-terminal deletions; assay: WG IVTT end point assay of PCSK9[1:33]-GFP N-terminal deletions; assay type: biochemical, wheat germ; conditions: deletion of 15 or more N-terminal residues, 100 μM PF846
Method: (C) PF846 dose–response IVTT activity assays of PCSK9[1:33]-GFP, PCSK9-FS[1:33]-GFP, RPL27[1:32]-GFP, and the GFP reporters and (D) end point assays (100 μM PF846) of PCSK9[1:33]-GFP N-terminal deletions were conducted to determine sensitivity to PF846 in WG IVTT (% activity relative to DMSO control).

[6] = test system: PCSK9 expression in HepG2 cells; assay: HepG2 cellular assay, PCSK9 Western blot; assay type: cell-based; conditions: 16 h treatment, 5 or 50 µM, triplicate, normalized to DMSO
Method: Reaction buffer (1 µL) and template (0.5 µL) were added and reaction progress was
Relative activity was cal-
450 culated using the slope of fluorescence increase over time (15–30 min post reaction initia-
Gene blocks were purchased from IDT
Digestion with Sgf I and PmeI allowed for
Sequence-verified plasmids
460 were cloned into DH5α E. coli for standard large-scale DNA plasmid preparation.
Gene blocks were purchased
Digestion with NdeI and XhoI
470 (4.5 g/L high-glucose DMEM, 2 mM L-glutamine, 10% fetal bovine serum, 1% penicillin-
Cells were lysed (100 µL RIPA buffer,
Protein lysates (24 µg) were separated by denaturing polyacrylamide
480 PCSK9 rabbit monoclonal antibody, 5% BSA in PBS-T). The PCSK9 probed membrane
HRP-labeled bands were visualized
Figure S12. […] PCSK9 expression in HepG2 cells
treated 16 h with PF846 or screening hit 8 (5 or 50 µM) or vehicle control (DMSO) was analyzed in triplicate
(also on this page, place not known: S12894 GAPDH pro m DMSO 5 μM DMSO μM 5 μM 50 μM PCSK9 PF846 hit8 50)
(1 picture or pasted object on this page, not shown here)

[7] = test system: GFP reporter translation; assay: WG IVTT activity assay, GFP reporter control; assay type: biochemical, wheat germ; conditions: negative control
Source text: A commercially available wheat germ lysate (WG) IVTT system was employed to assay translation inhibition. Translation activity was detected via a GFP reporter, and the assay was miniaturized to picoliter-scale microfluidic droplets (Figure 1A,B). […] PCSK9 and RPL27 were truncated to the first 33 and 32 amino acids, respectively (PCSK9[1:33] and RPL27[1:32]). The sequences contain distinct PF846 stall sites and were both fused to a GFP reporter. The GFP reporter and a frameshift mutant of PCSK9[1:33] (PCSK9-FS[1:33]), which mutates the nascent chain sequence while maintaining a nearly identical mRNA sequence, were included as negative controls.[13] […] Sequence sensitivity was further confirmed by an N-terminal deletion series of PCSK9[1:33]-GFP; deletion of N-terminal residues increasingly ablated PCSK9[1:33]-GFP translation sensitivity to PF846 (Figure 1D). The WG IVTT assay was miniaturized using a previously described microfluidic circuit modified for longer incubation times (Figure S1)[27] using PF846 as a positive control compound, and assay statistical quality was calculated (Z′=0.7) (Figure 1E). […] Assay statistical quality using PC-HygB positive control beads was similarly calculated (Z′ = 0.75, Figure 1H). […]
as §9, §10

O=C(c1ccc(-n2nnc3cccnc32)cc1)N(c1ncccc1Cl)[C@@H]1CCCNC1 [PF846, PF-06446846, reference compound]
inhibition of PCSK9[1:33]-GFP translation (in words) [1]: inhibited the translation
IC50 ([1]; PCSK9[1:33]-GFP template, triplicate, ± standard deviation of the mean): 3.9 ± 0.8 µM
activity on RPL27[1:32]-GFP translation (in words) [2]: inhibited the translation
relative potency on MST1[1:39]-GFP versus PCSK9[1:33]-GFP and RPL27[1:32]-GFP translation (in words) [3]: more potently inhibits
IC50 ([4]; PCSK9-FS[1:33]-GFP template, triplicate, undetectable IC50 marked >300): > 300 µM
activity on PCSK9-FS[1:33]-GFP translation (in words) ([4]; frameshift control): did not affect the translation
PF846 activity on N-terminal deletions of PCSK9[1:33]-GFP (in words) [5]: completely eliminates PF846 activity
PCSK9 protein levels in HepG2 cells (in words) [6]: significantly reduced
activity on GFP reporter control translation (in words) [7]: did not affect the translation
